# According to US9340532B2, “Methods and compositions for inhibiting CNKSR1” (PHUSIS THERAPEUTICS, INC., priority 2012, dated 2016):
# Where two headings read alike, the source gives them in different places.
# Key:
# [1] = molecular target: T1, AKT1 PH-domain (Homo sapiens, UniProt P31749); assay: SPR binding assay (Biacore T100), AKT1 PH-domain
# T1 construct: The PH-domain His-fusion proteins (CNK1 and AKT1) were expressed and immobilized on a NTA chip; made in house
# Experimental: (§1) All interaction analyses were done with a Biacore T100 Control Software v3.2, and BIAevaluation v4.1 analysis software (Biacore). The PH-domain His-fusion proteins (CNK1 and AKT1) were expressed and immobilized on a NTA chip to a level of 10,000 response units or less. Small molecule analytes at concentrations ranging from 50 μM to 0.010 μM were injected at a high flow rate (30 μL/min) DMSO concentrations in all samples and running buffer were 1-5% (v/v).
# A commercially available docking package, GOLD (GOLD [3.2], CCDC: Cambridge, UK, 2007) was used to evaluate the docking of compounds 1-7 into the binding pocket, see e.g. Table 5. Other docking was performed using modeling algorithms with state-of-the-art commercial drug discovery software (Schrodinger suite). GLIDE was chosen as the docking algorithm used to select and optimize compounds, providing a GlideScore as a rough estimate of binding affinity that was used to rank and select the best compounds. Additionally, ligand-based approaches provided an alternative to structure based drug discovery. Ligand-based virtual screening methodologies can take into account shape and electrostatics (like ROCS) and the pharmacophoric features (acceptor, donor, hydrophobic, aromatic, etc.) of its functional groups. Inositol tetraphosphate (IP4) binding to the PH-domain of CNKSR1 provided a good starting point for shape screening. Both structure-based and ligand-based approaches were used to find novel compounds (Table 7) and to refine and improve lead compounds (Tables 8, and 9). SPR interaction analyses for Compounds 1 through 7 were performed with a Biacore 2000, using Biacore2000 Control Software v3.2 and BIAevaluation v4.1 analysis software (Biacore) as described in Mol Cancer Ther 7:2621 (2008). SPR interaction analyses of all other compounds was undertaken using a Biacore T100 with Control and Evaluation software kit.
# [2] = molecular target: T2, CNK1 PH-domain (CNKSR1) (Homo sapiens, UniProt Q969H4); assay: SPR binding assay (Biacore T100), CNK1 PH-domain
# T2 construct: The PH-domain His-fusion proteins (CNK1 and AKT1) were expressed and immobilized on a NTA chip; made in house
# T2 sequence (Q969H4 403-502 limits assumed): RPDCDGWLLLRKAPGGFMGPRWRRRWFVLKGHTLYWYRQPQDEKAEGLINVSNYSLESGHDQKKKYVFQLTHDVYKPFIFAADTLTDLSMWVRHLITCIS
# Experimental: as §1
# Other docking was performed using modeling algorithms with state-of-the-art commercial drug discovery software (Schrodinger suite). […] Additionally, ligand-based approaches provided an alternative to structure based drug discovery. Ligand-based virtual screening methodologies can take into account shape and electrostatics (like ROCS) and the pharmacophoric features (acceptor, donor, hydrophobic, aromatic, etc.) of its functional groups. […] SPR interaction analyses of all other compounds was undertaken using a Biacore T100 with Control and Evaluation software kit.
# [3] = tested on: A549 (KRAS mutant cell line); assay: Proliferation Assay A549; format: cell-based; conditions: Homo sapiens, N = 2 experiments
# Experimental: (§2) The isogenic KRAS lines harboring G12D, G12C, and G12V were obtained from Horizon Discovery labs on a one year lease. These cells were cultured in McCoys media with 10% FBS to 80% confluency. Cells were then released from flasks via trypsinization and plated into 96-well plates at an initial density range of 2000 cells per well. Cells were allowed 24 hours to attach, and then the agents were added to the culture media at a range of concentrations from 0-100 μM. Cells were incubated for 72 hours with the drugs, and then viability was assessed using an MTS viability assay. Cells were exposed to MTS reagent (Promega) dissolved in PBS (Hyclone) at a concentration of 200 μL reagent/mL media for 2 hours. Absorbance was then read at 490 nm, and viability was expressed as a percentage normalized between the negative control (no cells plated) and the condition of cells with no drug added (100% viability) normalized as the upper limit of viability.
# (§3) Our panel of 30 cell lines and an extensive characterization were obtained from Dr. John Minna (UTSW). All cell lines were cultured in RPMI 1640 with 10% FBS. Cells were treated with concentrations of agents at concentrations 0.01 to 50 μM and evaluated as described above. IC50's were determined using Excelfit.
# [4] = tested on: H1373 (KRAS mutant cell line); assay: Proliferation Assay H1373; format: cell-based; conditions: Homo sapiens, NCI-H1373, N = 2 experiments
# Experimental: as §2, §3
# [5] = tested on: H226 (KRAS wildtype cell line); assay: Proliferation Assay H226; format: cell-based; conditions: Homo sapiens, NCI-H226, n = 1
# Experimental: as §2, §3
# [6] = tested on: H1975 (KRAS wildtype cell line); assay: Proliferation Assay H1975; format: cell-based; conditions: Homo sapiens, NCI-H1975, n = 1
# Experimental: as §2, §3
# T1 sequence (P31749 5-108 limits assumed): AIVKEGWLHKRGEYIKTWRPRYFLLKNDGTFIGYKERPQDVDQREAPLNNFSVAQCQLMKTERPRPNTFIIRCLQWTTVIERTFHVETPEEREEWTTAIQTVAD
Compound,"AKT KD ([1]; Table 7, curated diversity set)","Kd ([2]; Table 6, read-out: CNKS KD)",IC50 [3],Surface Plasmon Resonance CNKSR1 binding (RU max) ([2]; date 12 09 13),Surface Plasmon Resonance CNKSR1 stability (RU max post-injection) ([2]; date 12 09 13),IC50 [4],IC50 [5],IC50 [6],AKT KD ([1]; Table 8),"Kd ([2]; Table 8, read-out: CNK KD)",Surface Plasmon Resonance CNKSR1 binding (RU max) ([2]; date 11 26 13),Surface Plasmon Resonance CNKSR1 stability (RU max post-injection) ([2]; date 11 26 13)
COc1ccc(OC)c(-c2cc(C(=O)O)c3nc(C)[nH]c3n2)c1 [Compound 34],Bound,–,–,–,–,–,–,–,–,–,–,–
Cc1c(Cl)ccc2c(C(=O)O)cc(-c3cccnc3)nc12 [Compound 64],Bound,–,–,–,–,–,–,–,–,–,–,–
Nc1cccc(-c2cc(C(=O)O)c3cc(Cl)ccc3n2)c1 [Compound 66],Bound,–,–,–,–,–,–,–,–,–,–,–
O=C(O)CCc1ccc(-c2ccc(Br)cc2)n1CCC(=O)O [Compound 67],Bound,–,–,–,–,–,–,–,–,–,–,–
Cc1ccc(-c2csc(Cn3nc(CC4CN=CCO4)c4ccccc4c3=O)n2)cc1 (stereo not shown) [Compound 80],–,> 100 µM,–,–,–,–,–,–,–,–,–,–
Cc1ccc(-c2csc(Cn3nc(CC(=O)NCCC(N)=O)c4ccccc4c3=O)n2)cc1 [Compound 81],–,109 µM,100 µM,0.316 RU * 100/Da,0.154 RU * 100/Da,95 µM,> 100 µM,80 µM,–,–,–,–
Cc1ccc(-c2csc(Cn3nc(CC(=O)NCC(N)=O)c4ccccc4c3=O)n2)cc1 [Compound 82],–,–,51 µM,1.304 RU * 100/Da,0.544 RU * 100/Da,65 µM,> 100 µM,70 µM,–,–,–,–
"COc1c(/C=C/C(=O)O)cc(NS(=O)(=O)c2cccs2)c2c1OCO2 [Compound 84, (E)-3-(4-methoxy-7-(thiophene-2-sulfonamido)benzo[d][1,3]dioxol-5-yl)acrylic acid]",–,–,> 100 µM,–,–,> 100 µM,> 100 µM,> 100 µM,No binding,–,–,–
"O=C(O)/C=C/c1cc(NS(=O)(=O)c2cccs2)c2c(c1O)OCO2 [Compound 89, (E)-3-(4-hydroxy-7-(thiophene-2-sulfonamido)benzo[d][1,3]dioxol-5-yl)acrylic acid]",–,–,> 100 µM,1.350 RU * 100/Da,1.401 RU * 100/Da,> 100 µM,> 100 µM,> 100 µM,–,3.37 µM,–,–
"O=C(O)CCc1cc(NS(=O)(=O)c2cccs2)c2c(c1O)OCO2 [Compound 90, 3-(4-hydroxy-7-(thiophene-2-sulfonamido)benzo[d][1,3]dioxol-5-yl)propanoic acid]",–,–,> 100 µM,−7.809 RU * 100/Da,−3.766 RU * 100/Da,> 100 µM,> 100 µM,> 100 µM,–,–,–,–
CN1CC(=O)N(/C=C/c2cc(NS(=O)(=O)c3cccs3)c3c(c2O)OCO3)C1=O [Compound 91],–,–,> 100 µM,–,–,> 100 µM,> 100 µM,> 100 µM,–,–,−1.867 RU * 100/Da,0.288 RU * 100/Da
O=C1COC(=O)N1/C=C/c1cc(NS(=O)(=O)c2cccs2)c2c(c1O)OCO2 [Compound 100],–,–,> 100 µM,–,–,> 100 µM,> 100 µM,> 100 µM,–,–,−1.240 RU * 100/Da,−0.026 RU * 100/Da
Cc1ccc(-c2csc(Cn3nc(C4OC5CCOC54)c4ccccc4c3=O)n2)cc1 (stereo not shown) [Compound 124],–,–,50 µM,−0.369 RU * 100/Da,−0.053 RU * 100/Da,50 µM,95 µM,> 100 µM,–,–,–,–
Cc1ccc(-c2csc(Cn3nc(CC(O)C[N+](=O)[O-])c4ccccc4c3=O)n2)cc1 (stereo not shown) [Compound 125],–,–,38 µM,−0.380 RU * 100/Da,−0.127 RU * 100/Da,60 µM,65 µM,40 µM,–,–,–,–
Cc1ccc(-c2csc(Cn3nc(CC(O)CN)c4ccccc4c3=O)n2)cc1 (stereo not shown) [Compound 126],–,–,27 µM,−0.166 RU * 100/Da,−0.031 RU * 100/Da,16 µM,19 µM,27 µM,–,–,–,–
Cc1ccc(-c2csc(Cn3nc(CC(=O)NS(C)(=O)=O)c4ccccc4c3=O)n2)cc1 [Compound 127],–,–,> 100 µM,3.050 RU * 100/Da,2.868 RU * 100/Da,> 100 µM,> 100 µM,> 100 µM,–,–,–,–
CN1CC(=O)N(/C=C/c2cc(N(S(=O)(=O)c3cccs3)S(=O)(=O)c3cccs3)c3c(c2O)OCO3)C1=O [Compound 128],–,–,> 100 µM,−0.541 RU * 100/Da,−0.304 RU * 100/Da,> 100 µM,> 100 µM,> 100 µM,–,–,1.409 RU * 100/Da,0.456 RU * 100/Da
CCOC(=O)/C=C/c1cc(NS(=O)(=O)c2cccs2)c2c(c1OC)OCO2 [Compound 129],–,–,–,–,–,–,–,–,–,–,−0.133 RU * 100/Da,−0.041 RU * 100/Da
COc1cc(NS(=O)(=O)c2cccs2)c(SC)c(/C=C/N2C(=O)CN(C)C2=O)c1O [Compound 132],–,–,72 µM,–,–,60 µM,60 µM,> 100 µM,–,–,0.457 RU * 100/Da,0.906 RU * 100/Da
COc1cc(NS(=O)(=O)c2cccs2)c(SC)c(/C=C/N2C(=O)COC2=O)c1O [Compound 133],–,–,> 100 µM,–,–,> 100 µM,95 µM,> 100 µM,–,–,−1.537 RU * 100/Da,−0.123 RU * 100/Da
